Like-named read-outs stand apart in the source and are kept apart here.
How the values were obtained:
α7 nAChR [1] = details: cited from earlier work
other nAChR tested = details: cited from earlier work
5HT3 receptors [2] = biological target: T1, 5HT3 receptors (Homo sapiens, UniProt P46098); details: cited from earlier work
T1 sequence (P46098 24-478): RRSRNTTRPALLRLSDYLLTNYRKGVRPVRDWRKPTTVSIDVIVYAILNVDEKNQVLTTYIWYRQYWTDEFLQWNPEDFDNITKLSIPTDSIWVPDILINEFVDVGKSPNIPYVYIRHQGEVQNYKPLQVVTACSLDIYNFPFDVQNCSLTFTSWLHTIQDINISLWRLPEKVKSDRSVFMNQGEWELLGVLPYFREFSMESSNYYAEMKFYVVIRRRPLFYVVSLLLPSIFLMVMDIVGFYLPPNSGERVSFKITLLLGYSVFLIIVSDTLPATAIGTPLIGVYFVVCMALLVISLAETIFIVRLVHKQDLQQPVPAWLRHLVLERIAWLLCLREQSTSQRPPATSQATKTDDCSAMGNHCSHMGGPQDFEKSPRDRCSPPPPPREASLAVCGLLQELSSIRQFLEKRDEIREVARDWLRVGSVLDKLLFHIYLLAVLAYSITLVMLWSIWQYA

α4β2 nAChR [3] = biological target: T2, α4β2 nAChR (Homo sapiens, UniProt P17787+P43681); assay: cell-based; assay type: cell-based
T2 sequence (P43681 29-627 limits assumed): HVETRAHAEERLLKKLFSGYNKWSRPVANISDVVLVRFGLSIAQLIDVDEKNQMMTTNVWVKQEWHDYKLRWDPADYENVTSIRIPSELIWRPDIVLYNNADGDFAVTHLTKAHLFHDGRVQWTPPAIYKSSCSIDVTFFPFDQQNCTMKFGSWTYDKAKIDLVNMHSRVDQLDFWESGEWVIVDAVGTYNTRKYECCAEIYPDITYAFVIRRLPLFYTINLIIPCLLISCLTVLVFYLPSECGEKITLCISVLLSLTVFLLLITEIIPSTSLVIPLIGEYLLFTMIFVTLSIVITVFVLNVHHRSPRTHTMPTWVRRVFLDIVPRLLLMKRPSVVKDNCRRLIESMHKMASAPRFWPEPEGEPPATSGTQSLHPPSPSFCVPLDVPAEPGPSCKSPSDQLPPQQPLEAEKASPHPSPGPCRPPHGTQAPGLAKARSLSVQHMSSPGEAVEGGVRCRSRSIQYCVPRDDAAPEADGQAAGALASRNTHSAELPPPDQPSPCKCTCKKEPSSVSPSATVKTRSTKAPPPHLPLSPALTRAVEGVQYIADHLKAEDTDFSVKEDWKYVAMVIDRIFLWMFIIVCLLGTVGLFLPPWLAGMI
T2 sequence (P17787 26-502): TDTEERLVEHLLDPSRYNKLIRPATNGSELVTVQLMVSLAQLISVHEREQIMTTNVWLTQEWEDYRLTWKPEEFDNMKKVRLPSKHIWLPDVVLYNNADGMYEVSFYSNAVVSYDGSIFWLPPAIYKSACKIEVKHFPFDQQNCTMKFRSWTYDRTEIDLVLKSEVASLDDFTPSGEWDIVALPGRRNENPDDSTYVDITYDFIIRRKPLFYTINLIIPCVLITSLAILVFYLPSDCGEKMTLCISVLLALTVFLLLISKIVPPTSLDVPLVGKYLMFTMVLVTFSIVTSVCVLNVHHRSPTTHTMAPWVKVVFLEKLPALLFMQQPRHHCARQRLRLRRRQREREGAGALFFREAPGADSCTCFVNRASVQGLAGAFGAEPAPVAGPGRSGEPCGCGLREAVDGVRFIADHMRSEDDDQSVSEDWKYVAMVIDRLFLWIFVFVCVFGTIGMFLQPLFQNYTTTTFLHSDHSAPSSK

α4β2 nAChR [4] = biological target: T2, α4β2 nAChR; assay type: cell-based
[5] = biological target: T3, muscle type (α1β1εδ) nAChR (Homo sapiens, UniProt P02708+Q04844+Q07001); assay type: cell-based
T3 sequence (P02708 21-457): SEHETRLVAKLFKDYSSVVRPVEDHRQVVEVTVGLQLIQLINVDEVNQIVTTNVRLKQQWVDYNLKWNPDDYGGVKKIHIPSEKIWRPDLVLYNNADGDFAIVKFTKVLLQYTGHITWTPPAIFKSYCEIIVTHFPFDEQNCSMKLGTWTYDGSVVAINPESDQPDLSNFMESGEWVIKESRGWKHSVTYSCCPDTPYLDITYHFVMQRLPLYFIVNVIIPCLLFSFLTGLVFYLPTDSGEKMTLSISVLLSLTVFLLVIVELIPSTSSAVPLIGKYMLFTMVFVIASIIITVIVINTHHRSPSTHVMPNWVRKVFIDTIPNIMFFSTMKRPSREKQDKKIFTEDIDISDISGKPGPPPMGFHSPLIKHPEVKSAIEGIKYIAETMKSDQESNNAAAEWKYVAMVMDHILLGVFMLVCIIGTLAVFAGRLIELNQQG
T3 sequence (P11230 24-501 partner): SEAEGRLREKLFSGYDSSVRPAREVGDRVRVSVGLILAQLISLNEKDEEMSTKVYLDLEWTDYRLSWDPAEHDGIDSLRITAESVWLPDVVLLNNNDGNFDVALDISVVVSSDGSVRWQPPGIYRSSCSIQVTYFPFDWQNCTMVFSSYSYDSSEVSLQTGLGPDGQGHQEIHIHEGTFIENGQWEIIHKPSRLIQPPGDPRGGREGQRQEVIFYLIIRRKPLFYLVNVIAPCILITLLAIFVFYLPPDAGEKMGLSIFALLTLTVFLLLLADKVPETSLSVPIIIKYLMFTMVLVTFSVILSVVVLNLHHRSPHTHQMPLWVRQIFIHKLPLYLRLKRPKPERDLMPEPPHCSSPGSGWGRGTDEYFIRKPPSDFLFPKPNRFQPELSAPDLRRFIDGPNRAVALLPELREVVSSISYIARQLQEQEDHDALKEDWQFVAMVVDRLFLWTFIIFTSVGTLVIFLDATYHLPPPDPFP
T3 sequence (Q04844 21-493): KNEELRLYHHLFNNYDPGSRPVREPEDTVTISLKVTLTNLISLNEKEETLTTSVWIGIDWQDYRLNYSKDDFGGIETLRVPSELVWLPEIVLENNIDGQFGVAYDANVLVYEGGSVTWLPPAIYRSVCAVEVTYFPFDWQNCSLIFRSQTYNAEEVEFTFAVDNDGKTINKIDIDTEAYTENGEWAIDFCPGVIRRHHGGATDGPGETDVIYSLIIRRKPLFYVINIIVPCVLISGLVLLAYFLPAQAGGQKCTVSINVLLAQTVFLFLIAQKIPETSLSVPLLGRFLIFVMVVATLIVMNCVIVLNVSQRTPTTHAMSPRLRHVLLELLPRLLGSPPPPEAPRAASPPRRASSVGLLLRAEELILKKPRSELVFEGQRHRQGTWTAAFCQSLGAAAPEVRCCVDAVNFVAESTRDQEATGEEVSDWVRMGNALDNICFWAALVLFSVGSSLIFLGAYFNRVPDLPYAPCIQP
T3 sequence (Q07001 22-517): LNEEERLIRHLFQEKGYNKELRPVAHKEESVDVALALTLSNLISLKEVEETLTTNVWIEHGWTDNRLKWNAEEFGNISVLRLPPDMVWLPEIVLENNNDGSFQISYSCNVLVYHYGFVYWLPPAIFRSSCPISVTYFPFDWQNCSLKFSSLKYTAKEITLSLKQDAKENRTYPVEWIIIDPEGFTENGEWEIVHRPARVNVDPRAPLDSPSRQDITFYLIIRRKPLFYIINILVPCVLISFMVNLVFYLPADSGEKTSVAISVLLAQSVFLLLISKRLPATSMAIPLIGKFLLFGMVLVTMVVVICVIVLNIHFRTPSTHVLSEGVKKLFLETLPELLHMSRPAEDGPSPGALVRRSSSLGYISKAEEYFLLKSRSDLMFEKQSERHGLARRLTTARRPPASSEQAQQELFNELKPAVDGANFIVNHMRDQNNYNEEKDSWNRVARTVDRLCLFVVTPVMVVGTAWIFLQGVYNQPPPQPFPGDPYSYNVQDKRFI

[6] = biological target: T3, muscle type (α1β1εδ) nAChR; assay type: cell-based; remark: listed apart in the source
5HT3 receptors [7] = biological target: T1, 5HT3 receptors; assay type: cell-based
5HT3 receptors [8] = biological target: T1, 5HT3 receptors; assay type: cell-based; remark: listed apart in the source
α7 nAChR [9] = biological target: α7 nAChR (Homo sapiens, UniProt P36544); details: for EC50: read-out: α7 EC50
Chain of α7 nAChR (Homo sapiens, UniProt P36544) (P36544 23-502): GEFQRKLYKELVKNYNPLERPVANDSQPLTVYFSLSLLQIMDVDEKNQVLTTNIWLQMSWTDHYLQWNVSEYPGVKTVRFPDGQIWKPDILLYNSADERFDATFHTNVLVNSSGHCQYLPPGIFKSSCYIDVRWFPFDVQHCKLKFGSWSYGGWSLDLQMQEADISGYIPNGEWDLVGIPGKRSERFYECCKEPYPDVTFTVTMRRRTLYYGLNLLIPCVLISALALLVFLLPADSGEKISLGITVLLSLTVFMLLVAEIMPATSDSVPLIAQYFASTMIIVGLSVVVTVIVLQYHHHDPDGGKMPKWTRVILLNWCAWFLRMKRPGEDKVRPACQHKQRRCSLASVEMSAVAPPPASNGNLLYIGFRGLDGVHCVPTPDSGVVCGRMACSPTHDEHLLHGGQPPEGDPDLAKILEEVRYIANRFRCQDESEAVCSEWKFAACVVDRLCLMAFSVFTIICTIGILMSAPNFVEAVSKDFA

α3β4 nAChR = α3β4 nAChR (Homo sapiens, UniProt P30926+P32297); details: for EC50: read-out: α3β4 EC50
Chain of α3β4 nAChR (P32297 32-505): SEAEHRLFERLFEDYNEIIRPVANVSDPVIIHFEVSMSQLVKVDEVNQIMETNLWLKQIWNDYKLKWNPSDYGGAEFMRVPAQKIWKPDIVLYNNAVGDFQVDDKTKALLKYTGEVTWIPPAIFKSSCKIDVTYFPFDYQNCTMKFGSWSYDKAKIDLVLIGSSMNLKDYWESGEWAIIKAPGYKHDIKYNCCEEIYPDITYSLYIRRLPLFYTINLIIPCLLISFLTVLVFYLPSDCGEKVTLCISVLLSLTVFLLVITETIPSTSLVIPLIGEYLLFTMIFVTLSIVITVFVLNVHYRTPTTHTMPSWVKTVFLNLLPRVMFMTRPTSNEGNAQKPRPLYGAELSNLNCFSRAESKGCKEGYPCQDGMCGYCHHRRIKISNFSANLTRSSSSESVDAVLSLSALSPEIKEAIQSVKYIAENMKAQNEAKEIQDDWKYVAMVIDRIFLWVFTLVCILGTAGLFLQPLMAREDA
Chain of α3β4 nAChR (P30926 22-498): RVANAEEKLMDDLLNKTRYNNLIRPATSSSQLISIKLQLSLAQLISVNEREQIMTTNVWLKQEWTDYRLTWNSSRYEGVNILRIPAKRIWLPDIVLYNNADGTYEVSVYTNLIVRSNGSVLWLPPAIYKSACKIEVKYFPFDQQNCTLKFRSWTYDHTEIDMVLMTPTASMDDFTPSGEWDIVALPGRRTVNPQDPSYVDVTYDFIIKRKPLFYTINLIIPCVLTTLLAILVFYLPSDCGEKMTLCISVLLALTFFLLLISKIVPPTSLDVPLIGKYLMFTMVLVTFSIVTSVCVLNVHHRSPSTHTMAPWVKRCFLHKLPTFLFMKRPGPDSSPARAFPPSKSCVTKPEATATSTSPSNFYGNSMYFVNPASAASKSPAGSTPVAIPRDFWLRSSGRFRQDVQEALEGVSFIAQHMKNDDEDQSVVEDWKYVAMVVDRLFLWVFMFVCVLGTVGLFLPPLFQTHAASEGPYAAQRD

| Molecule | α4β2 Activity (α4β2 nAChR [3]) | α4β2 Inhibition (α4β2 nAChR [4]) | α1β1εδ Activity [5] | α1β1εδ Inhibition [6] | 5HT3 Activity (5HT3 receptors [7]) | 5HT3 Inhibition (5HT3 receptors [8]) | α7 Imax (α7 nAChR [9]) | α3β4 Imax (α3β4 nAChR) | other results |
| --- | --- | --- | --- | --- | --- | --- | --- | --- | --- |
| CN1C[C@@H]2CN(c3ccc4oc5ccccc5c(=O)c4c3)C[C@@H]2C1 [A-844606] |  |  |  |  |  |  |  |  | agonist character at α7 (Summary) (α7 nAChR [1]): Partial agonist of a7 with relatively little activation of other nAChR tested. Demonstrated to have antagonist activity for α4β2 and more potently for putative α3β4. Mechanism of antagonism not investigated.; activity at other nAChR (Summary) (other nAChR tested): Partial agonist of a7 with relatively little activation of other nAChR tested. Demonstrated to have antagonist activity for α4β2 and more potently for putative α3β4. Mechanism of antagonism not investigated. |
| O=C1NCC2(CN3CCC2CC3)O1 (single isomer, unassigned; (-)) [AR-R17779, (−)-Spiro[1-azabicyclo[2.2.2]octane-3,5′-oxazolidin-2′-one]] |  |  |  |  |  |  |  |  | Effects on 5HT3 Receptors (5HT3 receptors [2]): None |
| O=C(Oc1ccc(Br)cc1)N1CCN2CCC1CC2 [SSR-180711] |  |  |  |  |  |  |  |  | agonist character at α7 (Summary) (α7 nAChR [1]; binding and voltage-clamp experiments, ref Biton et al., 2007): A relatively potent partial agonist with selectivity for α7 compared with other nAChR subtypes tested established by binding and voltage-clamp experiments. |
| C[N+](C)(C)C [TMA, tetramethyl-ammonium, reference compound] | 19 ± 6% | N.S. | <2% | N.S. | N | N.S. | 1.1 ± 0.1 | 0.55 ± 0.03 | activation of muscle-type nAChRs [5]: detectable activation; selectivity classification (α7 nAChR [9]): non-α7-selective; EC50 (α7 nAChR [9]): 30 ± 3 µM; agonist character at α3β4 (α3β4 nAChR): partial agonists; EC50 (α3β4 nAChR): 350 ± 190 µM |
| CN1[C@@H]2CC[C@H]1CC(=O)C2 [Tropinone] |  |  |  |  |  |  |  |  | Effects on 5HT3 Receptors (5HT3 receptors [2]): Neither agonist nor antagonist activity detected |
| CC[N+](C)(C)C [ETMA, reference compound] | ≤2% | 40 ± 9% | N | N.S. | N | N.S. | 1.0 ± 0.1 | 0.78 ± 0.04 | EC50 (α7 nAChR [9]): 19 ± 2 µM; agonist character at α3β4 (α3β4 nAChR): partial agonists; EC50 (α3β4 nAChR): 660 ± 90 µM |
| O=C(N[C@@H]1C[C@H]2CCN(C2)C1)c1cc2ccoc2cn1 [PHA-709829, N-[(3R,5R)-1-azabicyclo[3.2.1]oct-3-yl]furo[2,3-c]pyridine-5-carboxamide] |  |  |  |  |  |  |  |  | 5HT3 receptors, inhibitory activity at (5HT3 receptors [2]; ref Acker et al., 2008): Inhibitory activity at ≈ 300 nM |
| OCCN1CCCC1 [1-(2-hydroxyethyl)pyrrolidine] |  |  |  |  |  |  |  |  | agonist activity on α7 (α7 nAChR [9]): inactive |
| quinuclidinone [QN-O] | N | N.S. | N | N.S. | N | N.S. | 0.73 ± 0.04 | ≥0.07± | selectivity classification (α7 nAChR [9]): α7-selective agonists; α7 potency, fold lower than related agonists that lack the oxygen group (e.g., ETMA and QN) (α7 nAChR [9]): at least 10 fold; EC50 (α7 nAChR [9]): 78 ± 11 µM; EC50 (α3β4 nAChR): > 1000 µM |
| C[N+]12CCC(CC1)CC2.[I-] [MQN, 1-methyl-1-azoniabicyclo[2.2.2]octane iodide] | N | 72 ± 4% | N | N.S. | N | N.S. | 1.0 ± 0.1 | 0.025 ± 0.006 | agonist character at α7 (α7 nAChR [9]): fully effective; agonist character at α3β4 (α3β4 nAChR): essentially all activity was lost |
| CC(=O)OCC[N+](C)(C)C [ACh, acetylcholine, reference compound] |  |  |  |  |  |  | 1.0 |  | α3β4 Imax (α3β4 nAChR; peak current, relative to ACh maximum (ACh constrained to 1)): 1.0 |
| C(=C1\CN2CCC1CC2)/c1ccccc1.Cl [BQNE, E-3-benzylidene-1-azoniabicyclo[2.2.2]-octane chloride] | N | 77 ± 2% | N | 70 ± 7% | N | 94 ± 5% | 0.28 ± 0.01 | <0.01 | selectivity classification (α7 nAChR [9]): α7-selective |

Reference: paper PMC2999882 (Molecular pharmacology, 2008)
